Laboratory results from patent publication US11654292B2 (priority 2017, dated 2023).
Where two headings read alike, the source gives them in different places.

How the values were obtained:
MDA-MB-231 cells [1] = experiment: Sodium dependence of TOL in Ringer's solution with or without sodium; format: cell-based; settings: Homo sapiens, MDA-MB-231, 10 min
Method: FIG. 2 TOL is dependent on the presence of sodium.
A study was conducted where the culture media containing MDA-MB-231 cells was replaced with Ringer's solution with or without sodium and then stimulated with pulsed magnetic fields of 80 mT for 10 minutes. Cells were transferred to microfuge tubes containing either Ringers +Na^+ or Ringers−Na^+.

[2] = test system: MDA-MB-231 breast cancer cells; experiment: Cell lysis, digoxin with 80 mT pulsed magnetic field in solenoid; format: cell-based; settings: 100 nM digoxin + 80 mT magnetic pulses at 25 Hz, within 10 min
From the text: (§1) Tubes were placed in an 8″1X 2.5″dia. solenoid with 697 turns (500 ft.) of 12 ga copper wire. A 5VDC current from an AE Techron 7224 DC-extended AC amplifier pulsed at 25 Hz, with a 10 msec ramp and fall, controlled by a Techtronics AFG 3021B waveform generator produced 80 mT magnetic pulses in the solenoid.

[3] = test system: MCF-10a normal breast epithelial cells; experiment: as above; format: cell-based; settings: 100 nM digoxin + 80 mT magnetic pulses at 25 Hz
From the text: as §1

MDA-MB-231 cells [4] = experiment: Stimulus intensity-response curve of pulsed magnetic field for cell lysis; format: cell-based; settings: 500 nM digoxin, PMF stimulus intensity 80 mT (FIG. 1)
Method: FIG. 1 Stimulus intensity—response curve to determine the strength of the pulsed magnetic field necessary to produce cell lysis of MDA-MB-231 cells, in vitro (p<0.01).
A study was conducted where cells were pulsed with an increasing stimulus intensity to determine the strength of the pulsed magnetic field necessary to produce cell lysis of MDA-MB-231 cells in vitro. […] All tubes were exposed to a 0 to 80 mT PMF.

[5] = test system: mouse breast cancer, 4T1, cells; experiment: In vivo TOL (digoxin + PMF) in immune competent mice with 4T1 tumors; set-up: species or system BALBc mice; settings: 7 mg/kg digoxin s.c. x5 + PMF 30 min on day 0, 2 and 4 (TOL), FIG. 7
Method: FIG. 7A. […] Arrows indicate days of treatment; 7B. […] Thus, the life expectancy of mice treated with TOL exceeds that of controls by approximately 1 week.
This treatment was administered on day 0 (first day of treatment), on day 2 and on day 4. Mice were monitored for tumor growth and were sacrificed when they met the NIH criteria for humane endpoint euthanasia.

MDA-MB-231 xenografts = experiment: In vivo TOL (digoxin + PMF) in mice with MDA-MB-231 xenografts; set-up: species or system J/Nu mice
Method: This protocol establishes steady-state pharmacokinetics in even poorly vascularized tissues. The mice were exposed to the pulsed magnetic field, using the same parameters as with the cultured cells, for 15 min starting 30 min after the last injection. This treatment was repeated two and four days after the first treatment. Mice were sacrificed and fixed with 4% paraformaldehyde 24 hrs after the third treatment. Tissues from these animals were sectioned and evaluated by a pathologist that was blind to the treatment.

MDA-MB-231 cells [6] = experiment: Trypan Blue estimate of cell lysis, ouabain with or without pulsed z-gradient magnetic field (MRI); format: cell-based
Method: Two tubes of MDA-MB-231 cells were prepared. The media in one tube was replaced by media containing 100 nM ouabain to block the sodium pumps. Both tubes were placed in the MRI and offset from center by 317 mm in the z-gradient field and exposed to the pulsed magnetic field. The samples were then repositioned and imaged.
After imaging, the cells in each vial were stained with Trypan Blue to estimate the number of cells that had been lysed by each treatment: (A) magnetic stimulation alone or (B) ouabain and magnetic stimulation. Virtually all of the cells that had only been exposed to pulsed magnet field stimulation were alive (expelled the Trypan Blue stain) and 10-15% of the cells that had been simultaneously treated with ouabain and pulse magnetic field stimulation were dead (appeared shrunken and retained the stain).
In this example, cells were exposed to ouabain for over 60 min during the preparation for the magnetic field stimulation. Because lysis may occur in a small percentage of cells when exposed to ouabain alone, a study was conducted where a vial of cells was exposed to ouabain without pulsed field stimulation for greater than 90 min.
The duration, amplitude and frequency of the pulsed z-gradient field was varied. All targeted osmotic lysis (TOL) vials (ouabain and pulsed magnetic field stimulation) were exposed to 100 nM ouabain for 10 min. Ouabain-treated and normal MDA-MB 231 control vials were exposed to the same pulsed magnetic field and then stained with Trypan Blue to estimate the amount of cell lysis in each tube. Two trials were conducted using the maximum field strength available (289.1689 Amp). The pulsed stimulus for the first of these trials was delivered with a rise time of 10 msec, a 2.5 msec return to baseline and an inter-stimulus interval of 17.5 msec; the stimulus was pulsed with a rise time of 10 msec, a 2.5 msec return to baseline and an inter-stimulus interval of 7.5 msec for the second trial. […]

| Compound | cytotoxicity at 0.5 µM (MDA-MB-231 cells [1]; read-out: non-viable cells, 500 nM digoxin + 80 mT PMF 10 min (Dig-PMF), Ringers +Na+ (FIG. 2)) [%] | cytotoxicity at 0.5 µM (MDA-MB-231 cells [1]; read-out: non-viable cells, 500 nM digoxin + 80 mT PMF 10 min (Dig-PMF), Ringers without sodium (FIG. 2)) [%] | cells lysed [2] [%] | cell lysis when stimulated [3] | cell lysis (MDA-MB-231 cells [4]) [%] | time to reach humane endpoint euthanasia criteria vs control groups [5] | tumor lysis (MDA-MB-231 xenografts; 5 mg/kg digoxin s.c. five times at 1 hr intervals + PMF 15 min, three treatments (TOL)) | median tumor necrosis score (grade 1-5) vs controls (MDA-MB-231 xenografts; 5 mg/kg digoxin s.c. x5 + PMF (TOL), FIG. 4, p<0.05) | tumor histology, drug-only control vs untreated controls (MDA-MB-231 xenografts; 5 mg/kg digoxin s.c. x5, no magnetic stimulation) | tumor growth rate vs controls (MDA-MB-231 xenografts; TOL (Dig-PMF), FIG. 6) | cell lysis, kill rate (MDA-MB-231 cells [6]; 100 nM ouabain 10 min + pulsed z-gradient field, amplitude 289.1689, inter-pulse interval 7.5 msec (50 Hz)) | cells dead (retained Trypan Blue stain) (MDA-MB-231 cells [6]; 100 nM ouabain (over 60 min) + pulsed z-gradient magnetic field 5 min, amplitude 187.5973, inter-stimulus interval 17.5 msec) | cells dead (MDA-MB-231 cells [6]; ouabain alone, no pulsed field stimulation, greater than 90 min) |
| --- | --- | --- | --- | --- | --- | --- | --- | --- | --- | --- | --- | --- | --- |
| C[C@H]1O[C@@H](O[C@H]2[C@@H](O)C[C@H](O[C@H]3[C@@H](O)C[C@H](O[C@H]4CC[C@@]5(C)[C@H](CC[C@@H]6[C@@H]5C[C@@H](O)[C@]5(C)[C@@H](C7=CC(=O)OC7)CC[C@]65O)C4)O[C@@H]3C)O[C@@H]2C)C[C@H](O)[C@@H]1O [digoxin] | ~70 | < 20 | 97.5 | Neither digoxin-treated nor untreated MCF-10a cells lysed | ~100 | significantly longer | 80-100% | significantly greater | did not differ from untreated controls | significantly slower | – | – | – |
| C[C@@H]1O[C@@H](O[C@H]2C[C@@H](O)[C@]3(CO)[C@H]4[C@H](O)C[C@]5(C)[C@@H](C6=CC(=O)OC6)CC[C@]5(O)[C@@H]4CC[C@]3(O)C2)[C@H](O)[C@H](O)[C@H]1O [ouabain] | – | – | – | – | – | – | – | – | – | – | 80-90% | 10-15% | Less than 1% |
